Tested on: bleomycin induced lung fibrosis
Experiment: Bleomycin induced lung fibrosis in mice (prophylactic administration)
Assay type: in vivo, mouse
Conditions: oral once daily, 21-day treatment; ≥10 mg/kg
Protocol: Bleomycin induced lung fibrosis in mice (Phrophylactic administration): Male C57B/L6 mice were ear tagged and weighed prior to the start of the study. Treatment group animals were treated with the compound on day −1 pre-bleomycin and all subsequent days post-bleomycin administration. On day 0, animals in disease groups received 1.5 U/kg dose of bleomycin via oropharyngeal route. The non-bleomycin control group received sterile saline. Animals were closely monitored daily till the end of the study. On day 21 following bleomycin administration, all animals were euthanized and blood, lung, and bronchoalveolar lavage (BAL) fluid were collected. Blood samples were used for plasma preparation; total leukocytes were counted in BAL fluid; and lungs were fixed in 10% neutral buffered formalin for histopathological analysis. Based on the strong anti-fibrotic cellular activity of ROCK inhibitors of this invention, the ability of such inhibitors to attenuate fibrosis in the in vivo setting was assessed in several mouse models of fibrotic diseases including the bleomycin induced pulmonary fibrosis. […] The improvement in the overall lung fibrosis, α-smooth muscle actin (αSMA) percentage positive area and total leukocytes count in bronchoalveolar lavage fluid was quantitated by applying the Ashcoft score criteria to the histopathology images, IHC quantitation and flowcytometry respectively.

Q: With `CNC(C(=O)Nc1ccc(-c2cn[nH]c2)cc1)c1cccc(OC)c1` (stereo not shown) [Example 2, N-(4-(1H-pyrazol-4-yl)phenyl)-2-(3-methoxyphenyl)-2-(methylamino)acetamide] as the compound, how does the “Ashcroft fibrotic indices, αSMA percentage positive area and total leukocytes count in bronchoalveolar lavage fluid” value read?
A: The value was “positive activity”.

From patent publication US11479533B2, “Inhibitors of Rho associated coiled-coil containing protein kinase” (KADMON CORPORATION, LLC, priority 2017, dated 2022)
